Where only a bound is given, the exact number is not on record here.

The values that follow come from a melting point compilation (Tetko et al.; mined from patent text by program, amines drawn as free bases though some values may be those of a salt).

`CCCCCCCCCc1nnc(C2=C(O)c3ccccc3S(=O)(=O)N2C)o1` came in with a melting point of 61.5 to 62 °C.
The molecule `O=C(c1ccccc1)C(O)CC(Cl)CCCl` (stereo not given) showed a melting point of 39 to 41 °C.
In the case of `Cn1cc(Cc2cc3cccc(-c4cccc(C(=O)NCCO)c4)c3s2)cc(Cl)c1=O` it was 210 to 211 °C.
In the case of `COc1ccc(CNc2cc3c(Nc4ccc(F)c(Br)c4)ncnc3cn2)cc1` it was 181 to 184 °C; in that of `CCc1ccc(Cc2c(OC)cccc2OC)cc1`, 62.5 to 66.5 °C.
In the case of `CN(C)C=CC(=O)CC(C)(C)C` it was 72 to 74 °C.
In the case of `COc1cc2c(cc1Br)-c1c(-c3cccs3)c3c(n1CC2)C(=O)N(C(C)C)CCN(C(=O)C(C)C)C3`, the melting point lay in the range of 248 to 249 °C.
Regarding `CCOC(=O)Cc1c(-c2ccc(Cl)cc2)nn2cccnc12`, the melting point is 221 to 225 °C.
In the case of `CCCCCCCCCCCCCC(=O)c1c(O)c(C)c(C)c(O)c1CCC` it was 70 °C; in that of `CN(C)CCc1ccc(O)c2[nH]nnc12`, 207 to 211 °C; in that of `CNS(=O)(=O)c1ccccc1Nc1nc(Nc2ccc3c(c2)CCCC(=O)N3CC(=O)N2CCN(C)CC2)ncc1Cl`, 148 to 151 °C.
The figure for `COc1cc(F)ccc1-c1c(/C=C/C(O)CC(=O)O)c2ccccc2c(=O)n1C(C)C` (stereo not given) is 207 to 209 °C; for `COc1ccc2c3c(c(=O)oc2c1)CN(Cc1cc(OC)c(OC)c(OC)c1)CC3` it is 171 to 173 °C; for `CC(=O)Nc1cc(Cn2c(C(=O)c3cc(C)cc(Cl)c3)c(C(C)C)c(=O)[nH]c2=O)ccn1` it is 241 to 243 °C.
As for `C[C@]1(COC(=O)N2CCc3cc(Cl)ccc32)Cn2cc([N+](=O)[O-])nc2O1`, the melting point lay within 189 to 191 °C.
The figure for `CC(C)(C)OC(=O)c1ccc2[nH]ccc2c1` is 91 to 93 °C.
For the molecule `COCOc1c(C)c(OC)c(OCOC)c(CCCCCc2c(OC)c(OCOC)c(C)c(OC)c2OCOC)c1OC`, the melting point is 83 to 84 °C.
On to `Cc1cc(-c2oncc2CO)ccc1Cl`, for which the melting point was in the range of 92 to 93 °C.
The figure for `Cc1cc(-c2cnn3c(C(F)(F)F)cc(-c4ccc(OCC(F)(F)F)c(C(F)(F)F)c4)nc23)cc(C)n1` is 229 °C; for `COc1cc(C2=C(c3cn(C)c4ccccc34)C(=O)NC2=O)cc(OC)c1OC` it is 187 °C; for `N#Cc1oc2cc(Cl)ccc2c1O` it is 205 °C.
In the case of `COc1ccc2cc([C@H](C)C(=O)OCC(C)(O[N+](=O)[O-])O[N+](=O)[O-])ccc2c1` it was 67 to 68 °C; in that of `c1ccc2scnc2c1`, 134 to 135 °C; in that of `CCOC(=O)c1nnc(-c2ccc(OCC)cc2)o1`, 93 °C.
The figure for `O=c1[nH]c2ccc(Cl)cc2c(=O)n1CCCS` is 255 to 257 °C.
For the molecule `O=C(Cc1cccs1)Nc1cccc2nc(N[C@@H]3CCc4ccccc43)ccc12`, the melting point stood at 164 °C.
In the case of `CCNc1nc(Nc2ccccc2)ncc1CO` it was 174 to 176 °C; in that of `COc1cc2ncc(C(=O)O)c(Nc3cccc(Br)c3)c2cc1OC`, 282 to 285 °C; in that of `CN(C)CC(=O)OCC1CC(c2ccc(-c3ccc(N4C[C@H](Cn5ccnn5)OC4=O)cc3F)cn2)=NO1` (stereo not given in full), 185 to 198 °C.
In the case of `O=C(O)c1cn(CC2CC2)c2c(F)c(F)c(F)cc2c1=O` it was 223 to 255 °C; in that of `COc1ccc(CN2CCC(c3cn(Cc4ccc(Cl)s4)c4cc(F)ccc34)CC2)cc1C(=O)O`, 232 to 236 °C; in that of `CN(C)C(=O)N1CCC(Nc2ncc3ncnc(Nc4ccc(F)c(Cl)c4)c3n2)CC1`, 187 to 188 °C.
In the case of `CC(O)CNc1ccnc2cc(Cl)ccc12` (stereo not given) it was 168 to 170 °C; in that of `CNCC(C)C1(c2ccccc2)C=CCC=C1` (stereo not given), more than 250 °C.
`O=C(Cn1c(=O)n(S(=O)(=O)c2ccc(Cl)cc2)c(=O)c2ccc(Cl)cc21)Nc1ccc(C(=O)O)cc1` showed a melting point of 219 to 221 °C.
